In patent US5798357A, “Agent for prophylaxis and treatment of thromboxane A2 -mediated diseases” (The Green Cross Corporation, priority 1994, dated 1998):
Counter-ions that a name gives are not always drawn. Like-named read-outs stand apart in the source and are kept apart here.

Legend:
TXA2 synthetase [1] = biological target: T1, TXA2 synthetase (Homo sapiens, UniProt P24557); test: inhibition of TXA2 synthetase by the use of human platelet microsome; assay type: biochemical; conditions: read-out: IC50 (amount necessary to inhibit 50% of TXA2 synthesis) of TXA2 synthetase inhibitory action
T1 construct: human platelet microsome was used; from tissue; host or cells: human blood platelets, microsomal fraction
T1 sequence (P24557 1-533): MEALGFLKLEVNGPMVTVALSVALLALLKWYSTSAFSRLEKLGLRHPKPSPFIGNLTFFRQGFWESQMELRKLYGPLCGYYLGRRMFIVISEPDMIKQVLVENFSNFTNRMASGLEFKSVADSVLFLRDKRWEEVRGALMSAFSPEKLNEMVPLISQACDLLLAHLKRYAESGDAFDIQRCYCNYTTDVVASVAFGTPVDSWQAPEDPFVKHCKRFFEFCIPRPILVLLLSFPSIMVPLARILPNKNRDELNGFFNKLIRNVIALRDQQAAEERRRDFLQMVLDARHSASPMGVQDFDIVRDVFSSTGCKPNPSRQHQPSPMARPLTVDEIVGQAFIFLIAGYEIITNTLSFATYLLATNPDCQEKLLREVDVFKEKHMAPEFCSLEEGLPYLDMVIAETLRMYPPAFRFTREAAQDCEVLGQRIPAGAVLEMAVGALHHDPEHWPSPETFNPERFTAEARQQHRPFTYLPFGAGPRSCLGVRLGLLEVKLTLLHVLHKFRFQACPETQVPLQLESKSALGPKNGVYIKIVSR
Method: The TXA2 amount in the above Experimental Examples was measured as TXB2 (stable compound thereof) amount by the EIA method using TXB2 assay kit (manufactured by Amersham). inhibition of TXA2 synthetase by the use of human platelet microsome In the same manner as in Experimental Example 2 except that human platelet microsome was used instead of rabbit platelet microsome, the experiment was performed. Compound A, Compound B and Compound C were used as reagents.

acute toxicity in dogs = conditions: dog, in vivo, po, orally administered
TXA2 synthetase [2] = biological target: T2, TXA2 synthetase (Oryctolagus cuniculus, UniProt G1TAZ9); test: Inhibition of TXA2 synthetase using rabbit platelet microsome; assay type: biochemical; conditions: PGH2 5 nmol, 22° C., 3 minutes, measured as TXB2 by EIA, read-out: TXA2 synthetase inhibitory action: amount necessary for 50% inhibition of TXA2 synthesis
T2 construct: to prepare a microsomal fraction; from tissue; host or cells: rabbit blood platelets, microsomal fraction
T2 sequence (G1TAZ9 1-530): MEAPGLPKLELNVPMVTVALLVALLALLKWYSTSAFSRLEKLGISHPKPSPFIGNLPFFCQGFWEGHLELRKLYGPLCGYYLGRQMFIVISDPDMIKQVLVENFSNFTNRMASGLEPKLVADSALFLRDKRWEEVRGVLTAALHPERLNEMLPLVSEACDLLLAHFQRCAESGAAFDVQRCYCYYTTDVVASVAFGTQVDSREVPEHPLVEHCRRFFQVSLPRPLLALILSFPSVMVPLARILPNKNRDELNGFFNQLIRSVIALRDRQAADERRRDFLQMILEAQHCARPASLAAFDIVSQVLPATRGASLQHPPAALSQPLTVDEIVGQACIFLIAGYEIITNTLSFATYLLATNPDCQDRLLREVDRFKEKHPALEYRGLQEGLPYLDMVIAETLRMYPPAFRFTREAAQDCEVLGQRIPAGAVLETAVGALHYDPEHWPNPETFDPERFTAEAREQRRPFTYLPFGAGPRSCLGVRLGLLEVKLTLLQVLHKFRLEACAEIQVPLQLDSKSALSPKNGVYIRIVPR
Method: Inhibition of TXA2 synthetase using rabbit platelet microsome
Blood was taken from the carotid artery of normal rabbit, using EDTA (77 mM EDTA, 1/10 vol). The blood was centrifuged at 1300 rpm for 10 minutes and platelet rich plasma in the supernatant was recovered, which was centrifuged at 3400 rpm for 15 minutes. The sediment was washed with physiological saline (original volume) and centrifuged at 3400 rpm for 15 minutes. Then, 0.05M Tris-HCl buffer (1 mM EDTA, pH 7.5, 3-fold weight of the wet weight of platelets) was added to the sediment and the mixture was homogenated (2 minutes, full speed) using polytron. The homogenate was centrifuged at 8300 rpm for 15 minutes (Tomy RD-20III, No. 3N) and the supernatant was centrifuged at […] for 1 hour (Beckman TL-100, TLA100.3). The sediment was suspended in 0.05M Tris-HCl buffer (1 mM EDTA, pH 7.5, one-third weight of the wet weight of platelets) to prepare a microsomal fraction. The fraction was stored at -80° C. until used for the experiment.
0.05M Tris-HCl buffer (pH 7.5, 890 μl), 100 μl of the above-mentionedmicrosome (85 μg protein) and 100% DMSO or the reagent (Compound A, 5 μl) were added and the mixture was preincubated at 22° C. for 3 minutes. […]
The TXA2 amount in the above Experimental Examples was measured as TXB2 (stable compound thereof) amount by the EIA method using TXB2 assay kit (manufactured by Amersham). […]

acute toxicity in rats = conditions: rat, in vivo, po, orally administered
rabbit platelets = test: TXA2 release from rabbit platelets; assay type: cell-based; conditions: Oryctolagus cuniculus, Platelet, 8 min, washed rabbit platelets, 37° C., read-out: TXA2 release suppressing action: amount necessary for 50% inhibition of TXA2 release
Method: TXA2 release from rabbit platelets Blood was taken from the carotid artery of normal rabbit using ethylenediaminetetraacetic acid (EDTA; 77 mM EDTA, 1/10 vol). The blood was centrifuged at 1800 rpm for 8 minutes and platelet rich plasma in the supernatant was recovered, which was then centrifuged at 3200 rpm for 8 minutes. The sediment (platelet) was washed with Tyrode-HEPES-EDTA buffer and centrifuged at 3200 rpm for 8 minutes. The sediment was suspended in Tyrode-HEPES buffer to prepare washed platelets (5×10^8 platelets/ml). 100% DMSO or a reagent (Compound A, 1.5 μl) was added to the washed platelets (270 μl) and the mixture was heated at 37° C. for 2 minutes. Then, collagen (10 μg/ml) and 1 mM Ca^2+ (or 1 mM Ca^2+ alone when investigating release from unstimulated platelets) were added and the experiment was started. After heating at 37° C. for 8 minutes, 10^-3 M indomethacin was added and the cuvette was placed in ice to stop the reaction. After centrifugation at 10,000 rpm for 10 minutes, the supernatant was taken and stored at -20° C. until used for the TXA2 determination. The TXA2 amount in the above Experimental Examples was measured as TXB2 (stable compound thereof) amount by the EIA method using TXB2 assay kit (manufactured by Amersham). | *1: amount necessary for 50% inhibition of TXA2 release (μM)

Cl.O=c1[nH]nc(OCCCc2ccc(Cl)cc2)c(NCc2cccnc2)c1Br [Compound A, 4-bromo-6-[3-(4-chlorophenyl)propoxy]-5-(3-pyridylmethylamino)-3(2H)-pyridazinone hydrochloride]
IC50 (TXA2 synthetase [1]): 10 nM
LD50 (acute toxicity in dogs): ≥ 2000 mg/kg
IC50 (TXA2 synthetase [2]): 18 nM
LD50 (acute toxicity in rats): ≥ 2000 mg/kg
IC50 (rabbit platelets; not stimulated, 1 mM Ca2+ alone): 1000 nM
IC50 (rabbit platelets; stimulated with collagen (10 μg/ml), 1 mM Ca2+): 9 nM

O=c1[nH]nc(OCC[C@H](O)c2ccc(Cl)cc2)c(NCc2cccnc2)c1Br [Compound B, 4-bromo-6-[(3S)-(4-chlorophenyl)-3-hydroxypropoxy]-5-(3-pyridylmethylamino)-3(2H)-pyridazinone hydrochloride]
IC50 (TXA2 synthetase [1]): 20 nM

O=c1[nH]nc(OCC[C@@H](O)c2ccc(Cl)cc2)c(NCc2cccnc2)c1Br [Compound C, 4-bromo-6-[(3R)-(4-chlorophenyl)-3-hydroxypropoxy]-5-(3-pyridylmethylamino)-3(2H)-pyridazinone hydrochloride]
IC50 (TXA2 synthetase [1]): 30 nM
